Experimental data as given in patent US20050245399A1, “Pyrazole derivatives as herbicidal compositions containing them” (ISHIHARA SANGYO KAISHA, LTD., priority 2004, published 2005).

How the values were obtained:
Type in all cases: in vivo
[1] = test system: velvetleaf (Abutilon theophrasti): ABUTH; assay: Test Example 1 pre-emergence herbicidal activity, ABUTH; settings: visually observed 20th to 23rd day after application
Outline: (§1)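 Plants were sown in pots of upland field soil and treated the following day, before emergence, with the formulated compound sprayed in 500 L/ha water. Herbicidal effect was judged by eye 20–23 days later on a 0–100% scale.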

[2] = test system: wheat (Triticum aestivum L.), TRZAX; assay: Test Example 2 post-emergence (foliage treatment) herbicidal activity, TRZAX; settings: 63 g a.i./ha
Outline: (§2)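 Foliar spray of formulated compound (500 L/ha dilution water, 0.1% v/v spreader) onto young potted plants at defined leaf stages. Scored 0-100% by visual inspection 20-23 d post-spray.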

[3] = test system: japanese ribbon wapato (Sagittaria pygmaea: SA GPY); assay: Test Example 3 water application herbicidal activity (paddy), SAGPY; settings: 63 g a.i./ha, water application under submerged condition, tubers planted, visually observed 14th day after application; 0 = untreated control, 100 = complete kill
Outline: (§3)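 Flooded paddy-soil pots in greenhouse; ECHOR and SCPJO sown, SAGPY tubers planted a day later, compound applied into 3–4 cm water at weeds' 0.5-leaf stage. Rice transplanted at 2-leaf stage, treated day 4 after transplanting. Visual growth control 0–100% at 14 days (weeds) and 21 days (rice) after application.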

[4] = test system: wheat (Triticum aestivum L.): TRZAX; assay: Test Example 1 pre-emergence herbicidal activity, TRZAX; settings: visually observed 20th to 23rd day after application
Outline: as §1

[5] = test system: green foxtail (Setaria viridis L.), SETVI; assay: Test Example 2 post-emergence (foliage treatment) herbicidal activity, SETVI; settings: 63 g a.i./ha
Outline: as §2

[6] = test system: corn (Zea mays L.): ZEAMX; assay: Test Example 1 pre-emergence herbicidal activity, ZEAMX; settings: visually observed 20th to 23rd day after application
Outline: as §1

[7] = test system: rice (Oryza sativa L.), ORYSA; assay: Test Example 2 post-emergence (foliage treatment) herbicidal activity, ORYSA; settings: 63 g a.i./ha
Outline: (§4)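 Seeds are sown in upland soil in pots, and seedlings are sprayed once they reach set leaf stages (pigweed 0.1-1.5, barnyardgrass 1.1-2.1, crabgrass 1.0-2.0, rice 1.0-2). The formulated compound goes on in 500 L/ha water containing 0.1% (v/v) spreader. Effect is judged by eye 20-23 days on, as percent control.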

[8] = test system: rice (Oryza sativa L.): ORYSA; assay: Test Example 1 pre-emergence herbicidal activity, ORYSA; settings: visually observed 20th to 23rd day after application
Outline: as §1

[9] = test system: barnyardgrass (Echinochloa crus-galli L.), ECHCG; assay: Test Example 2 post-emergence (foliage treatment) herbicidal activity, ECHCG; settings: 63 g a.i./ha
Outline: as §4

[10] = test system: japanese bulrush (Scirpus juncoides: SCPJO); assay: Test Example 3 water application herbicidal activity (paddy), SCPJO; settings: 63 g a.i./ha, water application under submerged condition at 0.5 leaf stage, visually observed 14th day after application; 0 = untreated control, 100 = complete kill
Outline: as §3

[11] = test system: soybean (Glycine max Merr.), GLXMA; assay: Test Example 2 post-emergence (foliage treatment) herbicidal activity, GLXMA; settings: 63 g a.i./ha
Outline: as §2

[12] = test system: rice (Oryza sativa L.: ORYSA); assay: Test Example 3 water application herbicidal activity (paddy), transplanted rice ORYSA; settings: 63 g a.i./ha, water application 4th day after transplantation of 2 leaf stage rice, visually observed 21st day after application; 0 = untreated control, 100 = complete kill
Text: Paddy field soil was put into a 1/1,000,000 ha pot and seeds of barnyardgrass (Echinochiloa oryzicola: ECHOR) and japanese bulrush (Scirpus juncoides: SCPJO) were sown and slightly covered with soil. Then the pot was left to stand still in a greenhouse in a state where the depth of flooding water was from 0.5 to 1 cm, and one day later, tubers of japanese ribbon wapato (Sagittaria pygmaea: SA GPY) were planted. Thereafter, the depth of flooding water was maintained at a level of from 3 to 4 cm, and when barnyardgrass and japanese bulrush reached a 0.5 leaf stage, an aqueous diluted solution of a wettable powder or emulsifiable concentrate having the compound of the present invention formulated in accordance with a usual formulation method, was uniformly applied under submerged condition by a pipette so that the dose of the active ingredient would be at a predetermined level. On the other hand, paddy filed soil was put into a 1/1,000,000 ha pot and puddled and leveled, and the depth of flooding water was from 3 to 4 cm. One day later, rice (Oryza sativa L.: ORYSA) of 2 leaf stage was transplanted in a depth of 3 cm. On the 4th day after the transplantation, the compound of the present invention was applied in the same manner as described above. On the 14th day after the application of the herbicide, the growth of barnyardgrass, japanese burlush and japanese ribbon wapato was visually observed and on the 21st day after the application of the herbicide, the growth of rice was visually observed, and the herbicidal effects were evaluated by growth controlling degrees (%) ranging from 0 (equivalent to the untreated control) to 100 (complete kill), whereby the results shown in Table 6, were obtained. Compound Nos. in Table 6 correspond to Compound Nos. in Table 1 and 2 given hereinbefore.

[13] = test system: redroot pigweed (Amaranthus retroflexus L.): AMARE; assay: Test Example 1 pre-emergence herbicidal activity, AMARE; settings: visually observed 20th to 23rd day after application
Outline: as §1

[14] = test system: prickly sida (Sida spinosa L.), SIDSP; assay: Test Example 2 post-emergence (foliage treatment) herbicidal activity, SIDSP; settings: 63 g a.i./ha
Outline: as §2

[15] = test system: redroot pigweed (Amaranthus retroflexus L.), AMARE; assay: Test Example 2 post-emergence (foliage treatment) herbicidal activity, AMARE; settings: 63 g a.i./ha
Outline: as §4

[16] = test system: velvetleaf (Abutilon theophrasti), ABUTH; assay: Test Example 2 post-emergence (foliage treatment) herbicidal activity, ABUTH; settings: 63 g a.i./ha
Outline: as §2

[17] = test system: barnyardgrass (Echinochiloa oryzicola: ECHOR); assay: Test Example 3 water application herbicidal activity (paddy), ECHOR; settings: 63 g a.i./ha, water application under submerged condition at 0.5 leaf stage, visually observed 14th day after application; 0 = untreated control, 100 = complete kill
Outline: as §3

[18] = test system: crabgrass (Digitaria sanguinalis L.): DIGSA; assay: Test Example 1 pre-emergence herbicidal activity, DIGSA; settings: visually observed 20th to 23rd day after application
Outline: as §1

[19] = test system: crabgrass (Digitaria sanguinalis L.), DIGSA; assay: Test Example 2 post-emergence (foliage treatment) herbicidal activity, DIGSA; settings: 63 g a.i./ha
Outline: as §4

[20] = test system: barnyardgrass (Echinochloa crus-galli L.): ECHCG; assay: Test Example 1 pre-emergence herbicidal activity, ECHCG; settings: visually observed 20th to 23rd day after application
Outline: as §1

[21] = test system: green foxtail (Setaria viridis L.): SETVI; assay: Test Example 1 pre-emergence herbicidal activity, SETVI; settings: visually observed 20th to 23rd day after application
Outline: as §1

[22] = test system: corn (Zea mays L.), ZEAMX; assay: Test Example 2 post-emergence (foliage treatment) herbicidal activity, ZEAMX; settings: 63 g a.i./ha
Outline: as §2

[23] = test system: prickly sida (Sida spinosa L.): SEDSP; assay: Test Example 1 pre-emergence herbicidal activity, SIDSP; settings: visually observed 20th to 23rd day after application
Outline: as §1

[24] = test system: soybean (Glycine max Merr.): GLXMA; assay: Test Example 1 pre-emergence herbicidal activity, GLXMA; settings: visually observed 20th to 23rd day after application
Outline: as §1

Row | SMILES | growth controlling degree, TRZAX [2] [%] | growth controlling degrees (%) SAGPY [3] [%] | growth controlling degree, SETVI [5] [%] | growth controlling degree, ORYSA [7] [%] | growth controlling degree, ECHCO [9] [%] | growth controlling degrees (%) SCPJO [10] [%] | growth controlling degree, GLXMA [11] [%] | growth controlling degrees (%) ORYSA [12] [%] | growth controlling degree, SIDSP [14] [%] | growth controlling degree, AMARE [15] [%] | growth controlling degree, ABUTH [16] [%] | growth controlling degrees (%) ECHOR [17] [%] | growth controlling degree, DIGSP [19] [%] | growth controlling degree, ZEAMX [22] [%] | Pre-emergence Herbicidal Activity ABUTH (growth controlling degree) ([1]; Rate 63 g a.i./ha) [%] | Pre-emergence Herbicidal Activity TRZAX (growth controlling degree) ([4]; Rate 63 g a.i./ha) [%] | Pre-emergence Herbicidal Activity ZEAMX (growth controlling degree) ([6]; Rate 63 g a.i./ha) [%] | Pre-emergence Herbicidal Activity ORYSA (growth controlling degree) ([8]; Rate 63 g a.i./ha) [%] | Pre-emergence Herbicidal Activity AMARE (growth controlling degree) ([13]; Rate 63 g a.i./ha) [%] | Pre-emergence Herbicidal Activity DIGSP (growth controlling degree) ([18]; Rate 63 g a.i./ha) [%] | other results
1 | COC(=O)CN(C=O)c1c(OC)c(Cl)cc(F)c1-c1nn(C)c(OC(F)F)c1Cl [Compound 1-20] | 10 | 0 | 70 | 50 | 10 | 20 | 50 | 30 | 90 | 100 | 60 | 90 | 20 | 40 |  |  |  |  |  |  | Pre-emergence Herbicidal Activity ABUTH (growth controlling degree) ([1]; Rate 125 g a.i./ha): 80%; Pre-emergence Herbicidal Activity TRZAX (growth controlling degree) ([4]; Rate 125 g a.i./ha): 0%; Pre-emergence Herbicidal Activity ZEAMX (growth controlling degree) ([6]; Rate 125 g a.i./ha): 0%; Pre-emergence Herbicidal Activity ORYSA (growth controlling degree) ([8]; Rate 125 g a.i./ha): 0%; Pre-emergence Herbicidal Activity AMARE (growth controlling degree) ([13]; Rate 125 g a.i./ha): 100%; Pre-emergence Herbicidal Activity DIGSP (growth controlling degree) ([18]; Rate 125 g a.i./ha): 30%; Pre-emergence Herbicidal Activity ECHCG (growth controlling degree) ([20]; Rate 125 g a.i./ha): 10%; Pre-emergence Herbicidal Activity SETVI (growth controlling degree) ([21]; Rate 125 g a.i./ha): 10%; Pre-emergence Herbicidal Activity SIDSP (growth controlling degree) ([23]; Rate 125 g a.i./ha): 98%; Pre-emergence Herbicidal Activity GLXMA (growth controlling degree) ([24]; Rate 125 g a.i./ha): 10%
2 | COc1c(Cl)cc(F)c(-c2nn(C)c(OC(F)F)c2Cl)c1N(C(=O)OCCl)C(=O)OCCl [Compound 1-55] | 10 | 100 | 30 | 50 | 60 | 95 | 30 | 50 | 100 | 100 | 100 | 100 | 0 | 10 |  |  |  |  |  |  | Pre-emergence Herbicidal Activity ABUTH (growth controlling degree) ([1]; Rate 125 g a.i./ha): 70%; Pre-emergence Herbicidal Activity TRZAX (growth controlling degree) ([4]; Rate 125 g a.i./ha): 20%; Pre-emergence Herbicidal Activity ZEAMX (growth controlling degree) ([6]; Rate 125 g a.i./ha): 0%; Pre-emergence Herbicidal Activity ORYSA (growth controlling degree) ([8]; Rate 125 g a.i./ha): 10%; Pre-emergence Herbicidal Activity AMARE (growth controlling degree) ([13]; Rate 125 g a.i./ha): 100%; Pre-emergence Herbicidal Activity DIGSP (growth controlling degree) ([18]; Rate 125 g a.i./ha): 95%; Pre-emergence Herbicidal Activity ECHCG (growth controlling degree) ([20]; Rate 125 g a.i./ha): 50%; Pre-emergence Herbicidal Activity SETVI (growth controlling degree) ([21]; Rate 125 g a.i./ha): 100%; Pre-emergence Herbicidal Activity SIDSP (growth controlling degree) ([23]; Rate 125 g a.i./ha): 95%; Pre-emergence Herbicidal Activity GLXMA (growth controlling degree) ([24]; Rate 125 g a.i./ha): 0%
3 | COc1ccc(OC(=O)Nc2c(OC)c(Cl)cc(F)c2-c2nn(C)c(OC(F)F)c2Cl)cc1 [Compound 1-57] | 40 | 100 | 100 | 95 | 100 | 100 | 90 | 50 | 100 | 100 | 100 | 100 | 100 | 90 | 60 | 30 | 0 | 20 | 100 | 80 | Pre-emergence Herbicidal Activity ECHCG (growth controlling degree) ([20]; Rate 63 g a.i./ha): 70%; Pre-emergence Herbicidal Activity SETVI (growth controlling degree) ([21]; Rate 63 g a.i./ha): 95%; Pre-emergence Herbicidal Activity SIDSP (growth controlling degree) ([23]; Rate 63 g a.i./ha): 70%; Pre-emergence Herbicidal Activity GLXMA (growth controlling degree) ([24]; Rate 63 g a.i./ha): 0%
4 | COc1c(Cl)cc(F)c(-c2nn(C)c(OC(F)F)c2Cl)c1NC(=O)COc1ccccc1 [Compound 1-15] | 50 | 98 | 100 | 80 | 90 | 90 | 50 | 50 | 100 | 100 | 100 | 100 | 70 | 50 | 60 | 30 | 10 | 40 | 100 | 100 | Pre-emergence Herbicidal Activity ECHCG (growth controlling degree) ([20]; Rate 63 g a.i./ha): 70%; Pre-emergence Herbicidal Activity SETVI (growth controlling degree) ([21]; Rate 63 g a.i./ha): 100%; Pre-emergence Herbicidal Activity SIDSP (growth controlling degree) ([23]; Rate 63 g a.i./ha): 60%; Pre-emergence Herbicidal Activity GLXMA (growth controlling degree) ([24]; Rate 63 g a.i./ha): 30%
5 | COc1c(Cl)cc(F)c(-c2nn(C)c(OC(F)F)c2Cl)c1NC(=O)c1ccccc1Cl [Compound 1-23] | 40 | 98 | 100 | 90 | 98 | 80 | 98 | 40 | 100 | 100 | 100 | 100 | 90 | 80 | 90 | 40 | 0 | 40 | 100 | 100 | Pre-emergence Herbicidal Activity ECHCG (growth controlling degree) ([20]; Rate 63 g a.i./ha): 80%; Pre-emergence Herbicidal Activity SETVI (growth controlling degree) ([21]; Rate 63 g a.i./ha): 95%; Pre-emergence Herbicidal Activity SIDSP (growth controlling degree) ([23]; Rate 63 g a.i./ha): 100%; Pre-emergence Herbicidal Activity GLXMA (growth controlling degree) ([24]; Rate 63 g a.i./ha): 30%
